Data reported in patent publication US20140213447A1, “HERBICIDAL COMPOSITIONS COMPRISING 4-AMINO-3-CHLORO-6-(4-CHLORO-2-FLUORO-3-METHOXYPHENYL) PYRIDINE-2-CARBOXYLIC ACID OR A DERIVATIVE THEREOF AND CERTAIN TRIAZOLOPYRIMIDINE SULFONAMIDES” (DOW AGROSCIENCES LLC, priority 2013, published 2014).

Legend:
Type in all cases: in vivo
Details in all cases: alone, 14 d
[1] = tested on: Chenopodium album L. (common lambsquarters); assay: Postemergent herbicidal activity, greenhouse foliar application, CHEAL
Experimental: (§1) Evaluation of Postemergent Herbicidal Activity. Seeds or nutlets of the desired test plant species were planted in Sun Gro Metro-Mix® 360 planting mixture, which typically has a pH of 6.0 to 6.8 and an organic matter content of about 30 percent, in plastic pots with a surface area of 64 square centimeters (cm^2). When required to ensure good germination and healthy plants, a fungicide treatment and/or other chemical or physical treatment was applied. The plants were grown for 7-21 days (d) in a greenhouse with an approximate 15 hour (h) photoperiod which was maintained at about 23-29° C. during the day and 22-28° C. during the night. Nutrients and water were added on a regular basis and supplemental lighting was provided with overhead metal halide 1000-Watt lamps as necessary. The plants were employed for testing when they reached the first or second true leaf stage.
(§2) A weighed amount, determined by the highest rate to be tested, of each test compound was placed in a 25 milliliter (mL) glass vial and was dissolved in 4 mL of a 97:3 volume per volume (v/v) mixture of acetone and dimethyl sulfoxide (DMSO) to obtain concentrated stock solutions. […] The concentrated stock solutions obtained were diluted with 20 mL of an aqueous mixture containing acetone, water, isopropyl alcohol, DMSO, Atplus 411F crop oil concentrate, and Triton® X-155 surfactant in a 48.5:39:10:1.5:1.0:0.02 v/v ratio to obtain spray solutions containing the highest application rates. Additional application rates were obtained by serial dilution of 12 mL of the high rate solution into a solution containing 2 mL of a 97:3 v/v mixture of acetone and DMSO and 10 mL of an aqueous mixture containing acetone, water, isopropyl alcohol, DMSO, Atplus 411F crop oil concentrate, and Triton X-155 surfactant in a 48.5:39:10:1.5:1.0:0.02 v/v ratio to obtain ½×, ¼×, ⅛× and 1/16× rates of the high rate. Compound requirements are based upon a 12 mL application volume at a rate of 187 liters per hectare (L/ha). Formulated compounds were applied to the plant material with an overhead Mandel track sprayer equipped with 8002E nozzles calibrated to deliver 187 L/ha over an application area of 0.503 square meters (m^2) at a spray height of 18 inches ([…]) above the average plant canopy height. Control plants were sprayed in the same manner with the solvent blank.
(§3) Treatments consisted of the methyl ester of 4-amino-3-chloro-6-(4-chloro-2-fluoro-3-methoxyphenyl)pyridine-2-carboxylic acid (Cmpd 1) as technical grade material and cloransulam-methyl (FirstRate®) and diclosulam (Strongarm®) alone and in combination. The form of compound of formula (I) was applied on an acid equivalent basis, and cloransulam-methyl and diclosulam were applied on an active ingredient basis.
(§4) The treated plants and control plants were placed in a greenhouse as described above and watered by subirrigation to prevent wash-off of the test compounds. After 14 d, the condition of the test plants as compared with that of the untreated plants was determined visually and scored on a scale of 0 to 100 percent where 0 corresponds to no injury and 100 corresponds to complete kill.
(§5) Results in Tables 1 and 2 are greenhouse trial results for foliar applied compositions. The values reported are percent (%) control visually rated. Colby's equation was used to determine the herbicidal effects expected from the mixtures (Colby, S. R. Calculation of the synergistic and antagonistic response of herbicide combinations. Weeds 1967, 15, 20-22.). More specifically, the following equation was used to calculate the expected activity of mixtures containing two active ingredients, A and B:
(§6) Expected=A+B−(A×B/100) • A=observed efficacy of active ingredient A at the same concentration as used in the mixture; • B=observed efficacy of active ingredient B at the same concentration as used in the mixture.

[2] = tested on: Amaranthus retroflexus L. (redroot pigweed); assay: Postemergent herbicidal activity, greenhouse foliar application, AMARE
Experimental: as §1, §2, §3, §4, §5, §6

[3] = tested on: Brassica napus (winter oilseed rape); assay: Postemergent herbicidal activity, greenhouse foliar application, BRSNW
Experimental: as §1, §2, §3, §4, §5, §6

[4] = tested on: Ipomoea hederacea (L.) Jacq. (ivyleaf momingglory); assay: Postemergent herbicidal activity, greenhouse foliar application, IPOHE
Experimental: as §1, §2, §3, §4, §5, §6

[5] = tested on: Setaria faberi Herrm. (giant foxtail); assay: Postemergent herbicidal activity, greenhouse foliar application, SETFA
Experimental: as §1, §2, §3, §4, §5, §6

[6] = tested on: Viola tricolor (L.) (wild pansy); assay: Postemergent herbicidal activity, greenhouse foliar application, VIOTR
Experimental: as §1, §2, §3, §4, §5, §6

[7] = tested on: Sorghum vulgare (common sorghum); assay: Postemergent herbicidal activity, greenhouse foliar application, SORVU
Experimental: as §1, §2, §3, §4, §5, §6

[8] = tested on: Stellaria media (L.) Vill. (common chickweed); assay: Postemergent herbicidal activity, greenhouse foliar application, STEME
Experimental: as §1, §2, §3, §4, §5, §6

[9] = tested on: Cyperus esculentus L. (yellow nutsedge); assay: Postemergent herbicidal activity, greenhouse foliar application, CYPES
Experimental: as §1, §2, §3, §4, §5, §6

`CCOc1nc(F)cc2nc(S(=O)(=O)Nc3c(Cl)cccc3C(=O)OC)nn12` [cloransulam-methyl, methyl 3-chloro-2-[[(5-ethoxy-7-fluoro[1,2,4]triazolo[1,5-c]pyrimidin-2-yl)sulfonyl]amino]benzoate] was tested, and the “CHEAL Obs, percent (%) control rated visually” value ([1]; 4.375 g ai/ha) was 0%, the “CHEAL Obs, percent (%) control rated visually” value ([1]; 8.75 g ai/ha) was 10% and the “CHEAL Obs, percent (%) control rated visually” value ([1]; 17.5 g ai/ha) was 20%. The “AMARE Obs, percent (%) control rated visually” value ([2]; 4.375 g ai/ha) was 0%, the “AMARE Obs, percent (%) control rated visually” value ([2]; 8.75 g ai/ha) was 10% and the “AMARE Obs, percent (%) control rated visually” value ([2]; 17.5 g ai/ha) was 20%. For the same molecule, the “BRSNW Obs, percent (%) control rated visually” value ([3]; 4.375 g ai/ha) was 90%, the “BRSNW Obs, percent (%) control rated visually” value ([3]; 8.75 g ai/ha) was 93% and the “BRSNW Obs, percent (%) control rated visually” value ([3]; 17.5 g ai/ha) was 95%. For the same molecule, the “IPOHE Obs, percent (%) control rated visually” value ([4]; 4.375 g ai/ha) was 80%, the “IPOHE Obs, percent (%) control rated visually” value ([4]; 8.75 g ai/ha) was 85% and the “IPOHE Obs, percent (%) control rated visually” value ([4]; 17.5 g ai/ha) was 85%. The “SETFA Obs, percent (%) control rated visually” value ([5]; 4.375 g ai/ha) was 0%, the “SETFA Obs, percent (%) control rated visually” value ([5]; 8.75 g ai/ha) was 0% and the “SETFA Obs, percent (%) control rated visually” value ([5]; 17.5 g ai/ha) was 0%. The “VIOTR Obs, percent (%) control rated visually” value ([6]; 4.375 g ai/ha) was 10%, the “VIOTR Obs, percent (%) control rated visually” value ([6]; 8.75 g ai/ha) was 50% and the “VIOTR Obs, percent (%) control rated visually” value ([6]; 17.5 g ai/ha) was 65%. The “SORVU Obs, percent (%) control rated visually” value ([7]; 4.375 g ai/ha) was 0%, the “SORVU Obs, percent (%) control rated visually” value ([7]; 8.75 g ai/ha) was 10% and the “SORVU Obs, percent (%) control rated visually” value ([7]; 17.5 g ai/ha) was 20%. The “STEME Obs, percent (%) control rated visually” value ([8]; 4.375 g ai/ha) was 0%, the “STEME Obs, percent (%) control rated visually” value ([8]; 8.75 g ai/ha) was 0% and the “STEME Obs, percent (%) control rated visually” value ([8]; 17.5 g ai/ha) was 0%.
For `COC(=O)c1nc(-c2ccc(Cl)c(OC)c2F)cc(N)c1Cl` [Cmpd 1, methyl 4-amino-3-chloro-6-(4-chloro-2-fluoro-3-methoxyphenyl)pyridine-2-carboxylate], the “CHEAL Obs, percent (%) control rated visually” value ([1]; 1.25 g ae/ha) was 70%, the “CHEAL Obs, percent (%) control rated visually” value ([1]; 2.5 g ae/ha) was 80% and the “CHEAL Obs, percent (%) control rated visually” value ([1]; 5 g ae/ha) was 93%. The “AMARE Obs, percent (%) control rated visually” value ([2]; 1.25 g ae/ha) was 50%, the “AMARE Obs, percent (%) control rated visually” value ([2]; 2.5 g ae/ha) was 60% and the “AMARE Obs, percent (%) control rated visually” value ([2]; 5 g ae/ha) was 90%. The “BRSNW Obs, percent (%) control rated visually” value ([3]; 1.25 g ae/ha) was 0%, the “BRSNW Obs, percent (%) control rated visually” value ([3]; 2.5 g ae/ha) was 5% and the “BRSNW Obs, percent (%) control rated visually” value ([3]; 5 g ae/ha) was 20%. The “CYPES Obs, percent (%) control rated visually” value ([9]; 1.25 g ae/ha) was 50%, the “CYPES Obs, percent (%) control rated visually” value ([9]; 2.5 g ae/ha) was 90% and the “CYPES Obs, percent (%) control rated visually” value ([9]; 5 g ae/ha) was 93%. For the same molecule, the “IPOHE Obs, percent (%) control rated visually” value ([4]; 1.25 g ae/ha) was 10%, the “IPOHE Obs, percent (%) control rated visually” value ([4]; 2.5 g ae/ha) was 20% and the “IPOHE Obs, percent (%) control rated visually” value ([4]; 5 g ae/ha) was 20%. The “SETFA Obs, percent (%) control rated visually” value ([5]; 1.25 g ae/ha) was 0%, the “SETFA Obs, percent (%) control rated visually” value ([5]; 2.5 g ae/ha) was 0% and the “SETFA Obs, percent (%) control rated visually” value ([5]; 5 g ae/ha) was 30%. The “VIOTR Obs, percent (%) control rated visually” value ([6]; 1.25 g ae/ha) was 10%, the “VIOTR Obs, percent (%) control rated visually” value ([6]; 2.5 g ae/ha) was 10% and the “VIOTR Obs, percent (%) control rated visually” value ([6]; 5 g ae/ha) was 30%. For the same molecule, the “SORVU Obs, percent (%) control rated visually” value ([7]; 1.25 g ae/ha) was 0%, the “SORVU Obs, percent (%) control rated visually” value ([7]; 2.5 g ae/ha) was 0% and the “SORVU Obs, percent (%) control rated visually” value ([7]; 5 g ae/ha) was 0%. The “STEME Obs, percent (%) control rated visually” value ([8]; 1.25 g ae/ha) was 30%, the “STEME Obs, percent (%) control rated visually” value ([8]; 2.5 g ae/ha) was 20% and the “STEME Obs, percent (%) control rated visually” value ([8]; 5 g ae/ha) was 40%.
With `CCOc1nc(F)cc2nc(S(=O)(=O)Nc3c(Cl)cccc3Cl)nn12` [diclosulam, N-(2,6-dichlorophenyl)-5-ethoxy-7-fluoro[1,2,4]triazolo[1,5-c]pyrimidine-2-sulfonamide] the “CHEAL Obs, percent (%) control rated visually” value ([1]; 4.375 g ai/ha) was 0%, the “CHEAL Obs, percent (%) control rated visually” value ([1]; 8.75 g ai/ha) was 10% and the “CHEAL Obs, percent (%) control rated visually” value ([1]; 17.5 g ai/ha) was 40%. The “AMARE Obs, percent (%) control rated visually” value ([2]; 4.375 g ai/ha) was 10%, the “AMARE Obs, percent (%) control rated visually” value ([2]; 8.75 g ai/ha) was 20% and the “AMARE Obs, percent (%) control rated visually” value ([2]; 17.5 g ai/ha) was 30%. For the same molecule, the “BRSNW Obs, percent (%) control rated visually” value ([3]; 4.375 g ai/ha) was 80%, the “BRSNW Obs, percent (%) control rated visually” value ([3]; 8.75 g ai/ha) was 85% and the “BRSNW Obs, percent (%) control rated visually” value ([3]; 17.5 g ai/ha) was 90%. The “CYPES Obs, percent (%) control rated visually” value ([9]; 4.375 g ai/ha) was 60%, the “CYPES Obs, percent (%) control rated visually” value ([9]; 8.75 g ai/ha) was 60% and the “CYPES Obs, percent (%) control rated visually” value ([9]; 17.5 g ai/ha) was 70%. The “IPOHE Obs, percent (%) control rated visually” value ([4]; 4.375 g ai/ha) was 75%, the “IPOHE Obs, percent (%) control rated visually” value ([4]; 8.75 g ai/ha) was 80% and the “IPOHE Obs, percent (%) control rated visually” value ([4]; 17.5 g ai/ha) was 85%. For the same molecule, the “SETFA Obs, percent (%) control rated visually” value ([5]; 4.375 g ai/ha) was 0%, the “SETFA Obs, percent (%) control rated visually” value ([5]; 8.75 g ai/ha) was 0% and the “SETFA Obs, percent (%) control rated visually” value ([5]; 17.5 g ai/ha) was 0%. The “VIOTR Obs, percent (%) control rated visually” value ([6]; 4.375 g ai/ha) was 10%, the “VIOTR Obs, percent (%) control rated visually” value ([6]; 8.75 g ai/ha) was 50% and the “VIOTR Obs, percent (%) control rated visually” value ([6]; 17.5 g ai/ha) was 70%. For the same molecule, the “SORVU Obs, percent (%) control rated visually” value ([7]; 4.375 g ai/ha) was 0%, the “SORVU Obs, percent (%) control rated visually” value ([7]; 8.75 g ai/ha) was 0% and the “SORVU Obs, percent (%) control rated visually” value ([7]; 17.5 g ai/ha) was 0%. The “STEME Obs, percent (%) control rated visually” value ([8]; 4.375 g ai/ha) was 0%, the “STEME Obs, percent (%) control rated visually” value ([8]; 8.75 g ai/ha) was 0% and the “STEME Obs, percent (%) control rated visually” value ([8]; 17.5 g ai/ha) was 0%.
